System: 855422-203-R-J1-PDC complex spheroid viability
Assay: Anticancer human tumor 855422-203-R-J1-PDC patient-derived bladder carcinoma cell line growth inhibition [POLQ]
Conditions: for IC50: curve of first compound; for viability, T/C: stronger effect = lower value; active = viability on the fitted dose curve at most 10% of control; inactive = the rest
Description: Multicellular complex tumor spheroid response to Polymerase (POL) inhibitors (novobiocin, ART-558, RP6685) in combination with a variety of drugs and investigational agents in selected tumor cell lines
The POL inhibitors (novobiocin, ART-558, and RP6685) were evaluated both individually and in combination with standard of care and investigational anticancer small molecules within a complex spheroid model of solid tumors. . Complex spheroids include a stromal component modeled by human endothelial cells (HUVEC) and fibroblasts modeled by human mesenchymal stem cells (MSCs). The concentration ranges selected for each drug and investigational agent were based upon clinically achievable concentrations if the clinical Cmax of the agent was known.
Compounds. The drugs and investigational agents: novobiocin (NSC847541), ART-558 (NSC835418), RP-6685 (NSC848927), peposertib (NSC802822), ceralasertib (NSC780249), elimusertib (NSC800525), camonsertib (NSC841442), AZD-1390 (NSC803789), olaparib (NSC753686), talazoparib (NSC767125), rucaparib (NSC756644), sotorasib (NSC818433), MRTX-1133 (NSC836407), SN-38 (NSC673596), topotecan (NSC609699), epotoside (NSC141540), doxorubicin (NSC123127), gemcitabine (NSC613327), 5-fluorouracil (NSC19893), paclitaxel (NSC125973), vemurafenib (NSC761431), MSA-2 (NSC828583), SN-011 (NSC837082), adavosertib (NSC754352), prexasertib (NSC758257), carboplatin (NSC241240) and oxaliplatin (NSC266046), were obtained from the National Cancer Institute (NCI) Developmental Therapeutics Program Chemical Repository (21). The FDA-approved anticancer drug set is available from the Developmental Therapeutics Program at https://dtp.cancer.gov/organization/dscb/obtaining/. […] The stock solutions were prepared in dimethyl sulfoxide (DMSO, Sigma-Aldrich, St. Louis, MO, cat. D2650), except for the platinum compounds which were prepared in saline (Quality Biological, Gaithersburg, MD, cat. 114-055-101), at 800-fold the tested concentration and stored at -70 degrees C prior to their use. All drugs and investigational agents were tested over a range starting from a high concentration at or near the clinical Cmax and decreasing in half-log increments. If the clinical Cmax for an agent had not been determined, the highest concentration tested was 10 microM, except for SN-38, which was tested at a high concentration of 1 microM.
Cell Culture. All cells were maintained in an incubator at 37 degrees C and 5% CO2 with 95% humidity. The PDC lines were cultured according to standard operating procedures established by the NCI PDMR (https://pdmr.cancer.gov). Table 3 of the manuscript, lists the cell lines along with the number of the three cell types plated to form the mct-spheroids and media for tumor cell growth. After thawing, all PDC lines, except 997537-175-T-J1-PDC and 415267-285-R-J2-PDC, were cultured in Matrigel-coated flasks prepared with a working solution of 1X Ham's F-12 nutrient mix, without supplementation (Thermo Fisher Scientific, cat. 11765054), 100 U/mL penicillin-streptomycin (Thermo Fisher Scientific, cat. 15140122), and 2.5% Matrigel (Corning Inc., Corning, NY, cat. 354248) for the first three passages. The two PDC lines 997537-175-T-J1-PDC and 415267-285-R-J2-PDC were cultured on uncoated flasks. The 857933-349-R-J2-PDC line was cultured in 6C/Colon 1B media containing advanced DMEM/F-12 (Thermo Fisher Scientific, cat. 12634028), 10 mM HEPES (Thermo Fisher Scientific, cat. 15630080), 1X GlutaMAX supplement (Thermo Fisher Scientific, cat. 35050061), 0.1 mg/mL primocin (InvivoGen, San Diego, CA, cat. ant-pm-2), 10% defined fetal bovine serum, heat inactivated (HyClone Laboratories Inc., Logan, UT, cat. SH30070.03HI), 50% L-WRN conditioned media (ATCC, cat. CRL-3276), 1.25 mM N-Acetyl-L-cysteine (Sigma-Aldrich, cat. A9165), 10 mM nicotinamide (Sigma-Aldrich, cat. N0636), 1X B-27 supplement (Thermo Fisher Scientific, cat. 17504044), 1X N-2 supplement (Thermo Fisher Scientific, cat. […]
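Note: spheroids exposed to compounds for seven days before readout.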

CC(C)n1c(=O)n(C)c2cnc3cc(F)c(-c4ccc(OCCCN5CCCCC5)nc4)cc3c21 + COC1C(OC(N)=O)C(O)C(Oc2ccc3c(O)c(NC(=O)c4ccc(O)c(CC=C(C)C)c4)c(=O)oc3c2C)OC1(C)C
> 10 µM: IC50 (second compound 0.0316 µM) | IC50 (second compound 0.1 µM) | IC50 (second compound 0.316 µM) | IC50 (second compound 1 µM) | IC50 (second compound 3.16 µM) | IC50 (second compound 10 µM)
inactive: viability, T/C (second compound 0.0316 µM, first compound 0.0316 µM) 97.6% | viability, T/C (second compound 0.0316 µM, first compound 0.1 µM) 92.7% | viability, T/C (second compound 0.0316 µM, first compound 0.316 µM) 89.8% | viability, T/C (second compound 0.0316 µM, first compound 1 µM) 89.1% | viability, T/C (second compound 0.0316 µM, first compound 3.16 µM) 84.7% | viability, T/C (second compound 0.0316 µM, first compound 10 µM) 70.3% | viability, T/C (second compound 0.1 µM, first compound 0.0316 µM) 84.4% | viability, T/C (second compound 0.1 µM, first compound 0.1 µM) 110% | viability, T/C (second compound 0.1 µM, first compound 0.316 µM) 88.1% | viability, T/C (second compound 0.1 µM, first compound 1 µM) 91.9% | viability, T/C (second compound 0.1 µM, first compound 3.16 µM) 79.6% | viability, T/C (second compound 0.1 µM, first compound 10 µM) 75.3% | viability, T/C (second compound 0.316 µM, first compound 0.0316 µM) 92.6% | viability, T/C (second compound 0.316 µM, first compound 0.1 µM) 100% | viability, T/C (second compound 0.316 µM, first compound 0.316 µM) 89.8% | viability, T/C (second compound 0.316 µM, first compound 1 µM) 102% | viability, T/C (second compound 0.316 µM, first compound 3.16 µM) 87.8% | viability, T/C (second compound 0.316 µM, first compound 10 µM) 65.9% | viability, T/C (second compound 1 µM, first compound 0.0316 µM) 104% | viability, T/C (second compound 1 µM, first compound 0.1 µM) 104% | viability, T/C (second compound 1 µM, first compound 0.316 µM) 96.2% | viability, T/C (second compound 1 µM, first compound 1 µM) 98.1% | viability, T/C (second compound 1 µM, first compound 3.16 µM) 81.2% | viability, T/C (second compound 1 µM, first compound 10 µM) 74% | viability, T/C (second compound 3.16 µM, first compound 0.0316 µM) 106% | viability, T/C (second compound 3.16 µM, first compound 0.1 µM) 95% | viability, T/C (second compound 3.16 µM, first compound 0.316 µM) 98.2% | viability, T/C (second compound 3.16 µM, first compound 1 µM) 79.1% | viability, T/C (second compound 3.16 µM, first compound 3.16 µM) 83.5% | viability, T/C (second compound 3.16 µM, first compound 10 µM) 69.7% | viability, T/C (second compound 10 µM, first compound 0.0316 µM) 104% | viability, T/C (second compound 10 µM, first compound 0.1 µM) 92.5% | viability, T/C (second compound 10 µM, first compound 0.316 µM) 93.9% | viability, T/C (second compound 10 µM, first compound 1 µM) 98.1% | viability, T/C (second compound 10 µM, first compound 3.16 µM) 83% | viability, T/C (second compound 10 µM, first compound 10 µM) 68.7%

Reference: PubChem BioAssay AID1963838 (Molecular Pharmacology Branch, DTP, NCI, 2024)
